In brackets after ≈: the same amount, converted by molar mass. Where two headings read alike, the source gives them in different places.
Experiments:
[1] = test system: Schistosoma mansoni adult worms (49-day-old); assay: Effect on adult schistosomes (49-day-old) in infected mice; type: in vivo; settings: for % reduction of adult worms growth at day 49 after per os application of 400 mg/kg, TWR (%) / Adult worms day 49, per os 400 mg/kg, DEAD WORM (%): single 400 mg/kg per os
Method: Mice were infected with 100 Schistosoma mansoni cercariae on day 49 post-treatment. Each group was treated per os with OZ compounds at single doses of 200, 400, and 600 mg/kg. Untreated mice served as the control. All groups were killed 4 weeks after treatment and the liver and intestine were removed and separated. The liver and intestine were compressed and alive male and female worms could be seen and counted.

[2] = test system: ANKA strain of P. berghei; assay: Single dose STI in vivo screen in infected mice; set-up: species or system Plasmodium berghei; settings: for Survival (days) 10 mg/kg po: single 10 mg/kg po in 3% ethanol and 7% Tween 80; for Survival (days) 10 mg/kg po / Survival (days) 10 mg/kg SSV po / Survival (days) 10 mg/kg sc: untreated 6-7 days; for Activity (%) 10 mg/kg po: single 10 mg/kg po in 3% ethanol and 7% Tween 80 on day 1 post-infection; for Activity (%) 10 mg/kg po / Activity (%) 10 mg/kg SSV po / Activity (%) 10 mg/kg sc / Activity (%) 3 mg/kg SSV po: percent reduction in parasitemia on day 3; for Survival (days) 10 mg/kg SSV po: single 10 mg/kg po in SSV; for Activity (%) 10 mg/kg SSV po: single 10 mg/kg po in standard suspending vehicle (SSV) on day 1 post-infection; for Survival (days) 10 mg/kg sc: single 10 mg/kg sc in 3% ethanol and 7% Tween 80; for Activity (%) 10 mg/kg sc: single 10 mg/kg sc in 3% ethanol and 7% Tween 80 on day 1 post-infection; for Survival (days) 3 mg/kg SSV po / Activity (%) 3 mg/kg SSV po: single 3 mg/kg po in SSV
[3] = test system: chloroquine-resistant K1 strain of P. falciparum; assay: In vitro antimalarial semiautomated microdilution assay ([3H]-hypoxanthine incorporation), K1 strain; type: cell-based, Plasmodium falciparum; settings: Plasmodium falciparum
Summary of the method: (§1)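 IC50 comes from Logit regression of [3H]-hypoxanthine incorporation data. Intraerythrocytic P. falciparum taken from asynchronous stock cultures is exposed to OZ compounds in a semiautomated microdilution format.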

[4] = test system: chloroquine-sensitive NF54 strain of P. falciparum; assay: In vitro antimalarial semiautomated microdilution assay ([3H]-hypoxanthine incorporation), NF54 strain; type: cell-based, Plasmodium falciparum; settings: Plasmodium falciparum
Summary of the method: as §1

[5] = 49-day-old adults, total worm reduction rate
[6] = percentage of dead worm in the liver
[7] = K1, 72 h, read-out: IC50 (ng/ml) K1, chloroquine-resistant K1 strain, 72 h incubation
[8] = NF54, 72 h, read-out: IC50 (ng/ml) NF54, chloroquine-sensitive NF54 strain, 72 h incubation
[9] = chloroquine-sensitive NF54 strain, 72 h incubation, read-out: IC50 (ng/ml) NF54
[10] = chloroquine-resistant K1 strain, 72 h incubation, read-out: IC50 (ng/ml) K1

Compound	% reduction of adult worms growth at day 49 after per os application of 400 mg/kg, TWR (%) [1, 5] [%]	Adult worms day 49, per os 400 mg/kg, DEAD WORM (%) [1, 6] [%]	Survival (days) 10 mg/kg SSV po [2] [days]	Activity (%) 10 mg/kg SSV po [2] [%]	IC50 [3, 7] [ng/mL]	IC50 [4, 8] [ng/mL]	Survival (days) 3 mg/kg SSV po [2] [days]	Activity (%) 3 mg/kg SSV po [2] [%]	also measured
Clc1ccc(C2(c3ccc(Cl)cc3)OOC3(O2)C2CC4CC(C2)CC3C4)cc1 (centres unmarked) [OZ43]	1	0							
CC(=O)N1CCC2(CC1)OOC1(O2)C2CC3CC(C2)CC1C3 (centres unmarked) [OZ49]	17	10							
O=S1(=O)CCC2(CC1)OOC1(O2)C2CC3CC(C2)CC1C3 (centres unmarked) [OZ50]	12	4							
CCOC(=O)CC1CCC2(CC1)OOC1(O2)C2CC3CC(C2)CC1C3 (centres unmarked) [OZ61]	8	21							
c1ccc(C2CCC3(CC2)OOC2(O3)C3CCCC2CCC3)cc1 (centres unmarked) [OZ67]	38	0							
CC1(C)COC2(CCC3(CC2)OOC2(O3)C3CCCC2CCC3)OC1 (centres unmarked) [OZ68]	17	0							
O=C(O)C1CCC2(CC1)OOC1(O2)C2CC3CC(C2)CC1C3 (centres unmarked) [OZ72]	0								Adult worms day 49, per os 400 mg/kg, DEAD WORM (%) ([1]; percentage of dead worm in the liver, listed as OZ 72): 10%
OC1(c2ccc(F)cc2)CCC2(CC1)OOC1(O2)C2CC3CC(C2)CC1C3 (centres unmarked) [OZ76]	32	0							
CCS(=O)(=O)N1CCC2(CC1)OOC1(O2)C2CC3CC(C2)CC1C3 (centres unmarked) [OZ79]	4	0							
c1ccc(C2(c3ccccn3)OOC3(O2)C2CC4CC(C2)CC3C4)nc1 (centres unmarked) [OZ81]	28	0							
O=C(CO)N1CCC2(CC1)OOC1(O2)C2CC3CC(C2)CC1C3 (centres unmarked) [OZ83]	7	19							
O=[N+]([O-])c1cccc(C2(c3cccc([N+](=O)[O-])c3)OOC3(O2)C2CC4CC(C2)CC3C4)c1 (centres unmarked) [OZ105, Adamantane-2-spiro-3′-5′,5′-bis(3′-nitrophenyl)-1′,2′,4′-trioxolane]	8	0	5.7	0	5.4 (≈ 12.3 nM)				Survival (days) 10 mg/kg po [2]: 5.7 days; Activity (%) 10 mg/kg po [2]: 16%; Survival (days) 10 mg/kg sc [2]: 6.3 days; Activity (%) 10 mg/kg sc [2]: 28%
NC(=O)OC1CCC2(CC1)OOC1(O2)C2CC3CC(C2)CC1C3 (centres unmarked) [OZ107]	26	4	6.3	32	1 (≈ 3.09 nM)	0.3 (≈ 0.928 nM)			Survival (days) 10 mg/kg po [2]: 6.3 days; Activity (%) 10 mg/kg po [2]: 70%; Survival (days) 10 mg/kg sc [2]: 8.0 days; Activity (%) 10 mg/kg sc [2]: 99.74%
CCN(CC)CC[C@H]1CC[C@]2(CC1)OOC1(O2)C2CC3CC(C2)CC1C3 (some centres unmarked) [OZ126]	0	9	6.7	72					IC50 [4, 9]: 0.5 ng/mL (≈ 1.38 nM); Survival (days) 10 mg/kg po [2]: 7.0 days; Activity (%) 10 mg/kg po [2]: 55%; Survival (days) 10 mg/kg sc [2]: 8.5 days; Activity (%) 10 mg/kg sc [2]: 99.44%; IC50 [3, 10]: 0.2 ng/mL (≈ 0.55 nM)
O=C1CN(C(=O)C[C@H]2CC[C@]3(CC2)OO[C@]2(O3)C3CC4CC(C3)CC2C4)CCN1 [OZ296]			10.0	99.22			9.2	90	IC50 [4, 9]: 0.89 ng/mL (≈ 2.2 nM); IC50 [3, 10]: 0.6 ng/mL (≈ 1.48 nM)
O=C(C[C@H]1CC[C@]2(CC1)OO[C@]1(O2)C2CC3CC(C2)CC1C3)N1CCC(O)CC1 [OZ297]			9.8	99.69			7.6	83	IC50 [4, 9]: 0.76 ng/mL (≈ 1.87 nM); IC50 [3, 10]: 0.49 ng/mL (≈ 1.21 nM)
O=S(=O)(C[C@H]1CC[C@]2(CC1)OO[C@]1(O2)C2CC3CC(C2)CC1C3)c1ncccn1 [OZ299]			6.6	36	6.8 (≈ 16.2 nM)	6.3 (≈ 15 nM)	6.4	0	
O=C(O)CCC(=O)NC[C@H]1CC[C@]2(CC1)OO[C@]1(O2)C2CC3CC(C2)CC1C3 [OZ300]			6.8	6			7.0	0	IC50 [4, 9]: 97 ng/mL (≈ 247 nM); IC50 [3, 10]: 71 ng/mL (≈ 180 nM)
NC(=O)CNC(=O)C[C@H]1CC[C@]2(CC1)OO[C@]1(O2)C2CC3CC(C2)CC1C3 [OZ306]			9.2		3.9 (≈ 10.3 nM)	3.6 (≈ 9.51 nM)	8.2	87	
CS(=O)(=O)C[C@H]1CC[C@]2(CC1)OO[C@]1(O2)C2CC3CC(C2)CC1C3 [OZ307]			9.4	98	0.62 (≈ 1.74 nM)	0.88 (≈ 2.47 nM)	7.8	74	
O=C(O)CNC[C@H]1CC[C@]2(CC1)OO[C@]1(O2)C2CC3CC(C2)CC1C3 [OZ309]			8.8	99.80	11 (≈ 31.3 nM)	17 (≈ 48.4 nM)	7.8	86	
O=C(O)C1CCN(C(=O)C[C@H]2CC[C@]3(CC2)OO[C@]2(O3)C3CC4CC(C3)CC2C4)CC1 [OZ312]			7.2	43	19 (≈ 43.8 nM)	27 (≈ 62.3 nM)	6.2	13	
O=C(C[C@H]1CC[C@]2(CC1)OO[C@]1(O2)C2CC3CC(C2)CC1C3)NCCN1CCOCC1 [OZ313]			10.4		0.55 (≈ 1.27 nM)	0.76 (≈ 1.75 nM)	7.4	58	
NC1(C(=O)NC[C@H]2CC[C@]3(CC2)OO[C@]2(O3)C3CC4CC(C3)CC2C4)CCCC1 [OZ317]			9.8				10.0		IC50 [4, 9]: 0.36 ng/mL (≈ 0.89 nM); IC50 [3, 10]: 0.33 ng/mL (≈ 0.816 nM)
NCCOc1ccc([C@H]2CC[C@]3(CC2)OO[C@]2(O3)C3CC4CC(C3)CC2C4)cc1 [OZ323]			15.6	99.98	0.85 (≈ 2.13 nM)	1.1 (≈ 2.75 nM)	9.2	99.92	
NC1(C(=O)NC[C@H]2CC[C@]3(CC2)OO[C@]2(O3)C3CC4CC(C3)CC2C4)CCCCC1 [OZ333]			9.2				8.0	96	IC50 [4, 9]: 0.44 ng/mL (≈ 1.05 nM); IC50 [3, 10]: 0.24 ng/mL (≈ 0.573 nM)
NOC[C@H]1CC[C@]2(CC1)OO[C@]1(O2)C2CC3CC(C2)CC1C3 [OZ334]			6.8	47	28 (≈ 90.5 nM)	20 (≈ 64.6 nM)	6.6	13	
NNC(=O)C[C@H]1CC[C@]2(CC1)OO[C@]1(O2)C2CC3CC(C2)CC1C3 [OZ340]			9.2	93	4.9 (≈ 14.6 nM)	2.9 (≈ 8.62 nM)	6.4	36	
O=C(C1CCCCC1)N1CC(=O)N2CCc3ccccc3C2C1 (centres unmarked) [PRAZIQUANTEL, praziquantel, reference compound]	93	89							% reduction of adult worms growth at day 49 after per os application of 600 mg/kg, TWR (%) ([1]; single 600 mg/kg per os, 49-day-old adults, total worm reduction rate): 100/100%; Adult worms day 49, per os 600 mg/kg, DEAD WORM (%) ([1]; single 600 mg/kg per os, percentage of dead worm in the liver): 100/100%
